The source of these data is publication PMC7018972, “Novel and selective inactivators of Triosephosphate isomerase with anti-trematode activity” (Scientific Reports, 2020).

Structures are written as SMILES. Where two headings read alike, the source gives them in different places.

In data set [1] the target is Fasciola hepatica TIM (FhTIM) (Fasciola hepatica, UniProt S4UI50). Description: Inhibition of recombinant FhTIM, coupled enzyme assay. The note with it: read-out: IC50. It counts as biochemical. The method in brief:
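E. coli-expressed FhTIM preincubated with compound 1 h at 37 °C in 100 mM triethanolamine, 10 mM EDTA, pH 7.4, 10% DMSO. Aliquot diluted into coupled assay (1 mM glyceraldehyde-3-phosphate, 0.2 mM NADH, α-glycerol phosphate dehydrogenase, pH 7.4) with NADH decrease at 340 nm, 38 °C. Triplicate, two independent experiments.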

Data set [2] deals with murine macrophages and human peripheral blood mononuclear cells. On the set-up: method as in PMID 22536349. The note with it: at 100 µM; cited from earlier work.
In data set [3] the test system is murine macrophages and bovine sperm. Description: Non-specific toxicity against mammalian cells. The format is cell-based. The note with it: for toxicity to mammalian cells in words: herein; for Toxicity mammalian cells: selectivity index parasite vs. mammalian cells, fixed doses 25 and 100 µM. On the procedure:
As a proof of concept, we tested the best FhTIM inactivators against F. hepatica and S. mansoni parasites. Also, we use compound 191 as a non-inhibitor which has a closely related structure to that of compound 187. Some compounds were able to kill 100% of the newly excysted juvenile (NEJ) F. hepatica within 4 to 48 h (Table 2 and Fig. 2). […] In parallel, these compounds were assayed to characterize their non-specific toxicity against murine macrophages and bovine sperm. Both models are recommended by FDA as an in vitro prediction of toxicology.
J774.1 murine macrophage cells (ATCC, USA) were grown in DMEM culture milieu containing 4 mM glutamine and supplemented with 10% FCS[20]. The cells were seeded in a 96-well plate (5×10^4 cells in 200 µL culture medium) and incubated at 37 °C in a 5% CO2 atmosphere for 48 h, to allow cell adhesion prior to drug testing. Afterward, cells were exposed for 48 h to the compounds (25–400 µM) or the vehicle for control (0.4% DMSO), and additional controls (cells in medium) were used in each test. Cell viability was then assessed by measuring the mitochondria-dependent reduction of MTT (3-(4,5-dimethylthiazol-2-yl)-2,5-diphenyltetrazolium bromide) to formazan. For this purpose, MTT in sterile PBS (0.2% glucose), pH 7.4, was added to the macrophages to achieve a final concentration of 0.1 mg/mL, and the cells were incubated at 37 °C for 3 h. After removing the medium, formazan crystals were dissolved in 180 µL of DMSO and 20 µL of MTT buffer (0.1 M glycine, 0.1 M NaCl, 0.5 mM EDTA, pH 10.5), and the absorbance at 560 nm was measured. The IC50 was defined as the drug concentration at which 50% of the cells were viable, relative to the control (no drug added), and was determined by analysis using OriginLab8.5® sigmoidal regression (% of viable cells vs. the logarithm of the compound concentration). Tests were performed in triplicate.
Semen samples were obtained from a healthy fertile Hereford bull and kept frozen in 0.5 mL straws (extended in Andromed, Minitube, Germany[47]) under liquid nitrogen until use. The semen used belonged to a single freezing batch that was obtained during a regular collection schedule with an artificial vagina. Samples from three straws were thawed and a sperm pool was prepared in PBS at a concentration of 40 million spermatozoa per mL, then 50 μL of this sperm suspension was carefully mixed with 50 μL of compounds diluted to 100, 50, 25, 12.5 and 6.25 μM or with 1% DMSO in control experiments. Each condition was assayed by duplicate in 96-well plates and controls were assayed by triplicate. Plates were incubated at 37 °C for 1 h with moderate shaking. The motility analysis was carried out using a CASA (Computer Assisted Semen Analyzer) system Androvision (Minitube, Tiefenbach, Germany) with an Olympus BX 41 microscope (Olympus, Japan) equipped with a warm-stage at 37 °C. Each sample (10 μL) was placed onto a Makler Counting Chamber (depth 10 μm, Sefi-Medical Instruments, Israel) and the following parameters were evaluated: percentage of total motile spermatozoa (motility >5 μm/s) and velocity curved line (VCL, >24 μm/s). At least 400 spermatozoa were analyzed from each sample from at least four microscope fields.

The subject of data set [4] is newly excysted juvenile (NEJ) F. hepatica. Description: In vitro NEJ treatment. It counts as cell-based, Fasciola hepatica. The note with it: NEJ, incubation time 72 h. On the procedure: F. hepatica metacercariae were acquired from DILAVE, MGAP, Uruguay. NEJ were obtained by in vitro excystement as previously described with minor modifications. Briefly, metacercariae were incubated with 1% sodium hypochlorite for 5 min at room temperature to remove the outer cyst wall and then washed exhaustively with PBS 200 U/mL Penicillin G sulfate, […] streptomycin sulfate, 500 ng/mL amphotericin B, 10 mM HEPES, counted and divided into groups of around 20 parasites that were transferred to 12 wells tissue culture plates. Parasites were maintained at 37 °C, 5% CO2 in modified Basch’s medium. At day 1, compounds were added at the indicated concentrations and 0.5% DMSO was added to control groups; each condition was tested in duplicate. NEJ behavior was monitored under a light microscope (Olympus BX41), every day each well was recorded for a minute in order to assess parasite motility and registered using the following score: 3- normally active; 2- reduced activity (sporadic movement); 1- immotile (dead)[48].

The test system of data set [5] is S. mansoni somules. Put plainly: S. mansoni somules phenotypic screen in vitro. The format is cell-based, Schistosoma mansoni. The note with it: for SOMULES SEVERITY SCORE: Table 2S, 10 uM. The source says: (§1) The NMRI isolate of S. mansoni was maintained by passage through Biomphalaria glabrata snails and 3–5 week-old, female Golden Syrian hamsters (Charles River, San Diego, CA) as intermediate and definite hosts, respectively. A dose of 600 infective larvae (cercariae) was used to infect hamsters. The acquisition, preparation and in vitro maintenance of S. mansoni post-infective larvae (schistosomula or somules) and adults have been already described[5],[50],[51]. Vertebrate animal maintenance and handling at the University of California San Diego Animal Care Facility were in accordance with protocols approved by the university’s Institutional Animal Care and Use Committee (IACUC).
Phenotypic screens with somules were performed as described[5],[50],[51]. Initially, 100 μL Basch medium, 100 U/ml penicillin, […] streptomycin, 4% heat-inactivated FBS (Corning Mediatech) and 1 μl compound in DMSO were added to clear, 96-well round-bottomed plates (Costar cat.# 3367). Then, 100 μL of the same medium containing 40–50 somules was added to mix the compound with somules (final concentration of DMSO was 0.5%). Assay plates were placed into plastic boxes humidified with wet tissue and then incubated at 37 °C in a 5% CO2 environment. Somules phenotypes were recorded every 24 h up to 72 h using an inverted microscope (Zeiss Axiovert 40 C).
(§2) Schistosome phenotypic responses were recorded employing a series of ‘descriptors,’ such as rounding, degeneration, overactivity, loss of translucency and changes in motility, as described previously[5],[50],[51],[53]. To allow for comparisons of compound activity, each descriptor was awarded a value of 1 and these were added up to a maximum ‘severity score’ of 4. Evidence of degeneracy or death was awarded the maximum score of 4. Scores were averaged across duplicate wells for each compound (see details in the supporting information).

For data set [6], the system named is S. mansoni adults. Put plainly: S. mansoni adults phenotypic screen ex vivo. It counts as cell-based, Schistosoma mansoni. The settings on record: Table 2S, 5 uM.
Excerpt: as §1
Phenotypic screens with 42-day-old, adult parasites were performed in 24-well plates (Costar cat.# 3526) containing the above medium and approximately five adult males and two females per well. Compound was added in a volume of up to 1 μL DMSO at a concentration of 5 µM (0.05% DMSO final). Assay plates were incubated at 37 °C in a 5% CO2 environment. Parasite phenotypes were recorded at 4, 8 and 24 h using a Zeiss Axiovert 40 C.
as §2

The mark [7] stands for this setting: recombinant FhTIM, 1 h incubation with compound at 37 °C.

Fasciola hepatica TIM (FhTIM), sequence (S4UI50 entry or part of it): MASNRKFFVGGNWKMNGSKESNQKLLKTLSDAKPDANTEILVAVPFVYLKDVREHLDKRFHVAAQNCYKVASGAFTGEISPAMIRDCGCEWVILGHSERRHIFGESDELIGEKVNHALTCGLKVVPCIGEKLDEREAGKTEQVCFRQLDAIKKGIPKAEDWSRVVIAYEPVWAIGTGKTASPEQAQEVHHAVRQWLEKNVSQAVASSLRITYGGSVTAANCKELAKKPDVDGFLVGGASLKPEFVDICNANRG

For the molecule `C=CCn1c(-c2ccc(Cl)cc2)csc1=NN=CC=Cc1cccs1` [Compound 1134], the concentration for half-maximal inhibition (IC50) in data set [1] (Table 1S, screening of 340 compounds in FhTIM, table head prints no unit, µM per b8/b9) was 50 to 100 µM; in data set [1] (setting [7]) it was 45 ± 4 µM; in data set [4] it was 50 ± 6 µM. Also, the toxicity in words entry in data set [2] is “non-toxic”. Besides, the “toxicity to mammalian cells in words” value in data set [3] is listed as “non-toxic”. In data set [3], the Toxicity mammalian cells result is on record as “NT (when the IC50 vs. the parasite was at least 10 times less than the IC50 vs. the mammalian cells, we considered these compounds as non-toxic (NT))”.
On to `C=CCn1c(-c2ccc(Cl)cc2)csc1=NN=CC=Cc1ccc([N+](=O)[O-])s1` [Compound 144], for which the values for the IC50 in data set [1] (setting [7]) and in data set [4] were 60 ± 2 µM and 25 ± 5 µM, respectively. The toxicity in words entry in data set [2] was “non-toxic”. In data set [3], the “toxicity to mammalian cells in words” value is “non-toxic”. For the same molecule, the Toxicity mammalian cells entry in data set [3] was “NT (when the IC50 vs. the parasite was at least 10 times less than the IC50 vs. the mammalian cells, we considered these compounds as non-toxic (NT))”. In data set [5] (Table 2, 72 h, score 0 to maximum 4), the “S. mansoni somules severity score” value was 4 (72 h). The “SOMULES SEVERITY SCORE” value in data set [5] (24 h) is reported as 1; in data set [5] (48 h), 2; in data set [5] (3d) it was 4. Also, the “ADULTS SEVERITY SCORE” value in data set [6] (4 h), in data set [6] (8 h) and in data set [6] (24 h) was 0 in each case.
